Data on 1 molecule can be found in patent US6706686B2, “Inhibition of histone deacetylase as a treatment for cardiac hypertrophy” (The Regents of the University of Colorado, priority 2001, dated 2004).

SMILES strings stand for the structures.

The test system of assay [1] is acetylated lysine residues / Histone H3 in cardiac myocytes. Briefly: Detection of acetylated lysine residues (Western blot, immunofluorescence). Particulars: exposure for 24 hours. The assay is classed as cell-based, rat. The procedure:
(§1) Cell culture. Ventricular myocytes from one-day-old rats were plated at low density in MEM with 5% calf serum, and studied in serum-free MEM. Cultures were treated with PE (#P6126, Sigma-Aldrich Corp., St. Louis, Mo.), IL-1 (#501-RL, R&D Systems, Minneapolis, Minn.), TSA (#GR-309, BIOMOL Research Laboratories, Inc., Plymouth Meeting, Pa.) or their vehicles (ascorbic acid for PE; bovine serum albumin for IL-1; dimethyl sulfoxide for TSA).
Detection of acetylated lysine residues. Total cell extract was subjected to Western blot analysis using antibodies from Cell Signaling Technology (Beverly, Mass.) (acetylated lysine antibody: #9441, acetylated histone H3 antibody at Lysine 9: #9671, acetylated histone H3 antibody at Lysine 23: #9674, histone H3 antibody: #9712). Nuclear localization of acetylated histone H3 was examined by immunostaining using the same antibodies.
In general terms: In western blotting, separated proteins are transferred to a membrane and probed.

Assay [2] deals with SERCA, α-/β-MyHC, ANP, BNP, cardiac α-actin mRNA in cardiac myocytes. Briefly: Myocyte-specific mRNA expression by RNase protection assay. Format: cell-based, rat. The procedure:
FIGS. 1A-C. TSA alters agonist-induced gene repression. Cultured cardiac myocytes were treated with PE (20 μmol/L) or IL-1 (1 ng/mL) for 48 hrs. TSA (30 nmol/L) was added 30 min. prior to treatment with PE or IL-1. Myocyte-specific mRNA expression (SERCA2a (FIG. 1A), αMyHC (FIG. 1B), βMyHC (FIG. 1C) was assayed in 5 μg total RNA by RNase protection assay. Mean data are from 4 cultures, and are presented as % of control after normalization to GAPDH signal.
as §1
Quantification of myocyte hypertrophy and myocyte-specific mRNA expression. Growth of cultured myocytes was quantified by content of radiolabeled protein after continuous incubation with ^14C-phenylalanine. For evaluation of the myocyte gene program, total RNA was extracted from cells with TRIZol (GIBCO, Carlsbad, Calif.) and used in RNase protection assay with probes for SERCA, α-/β-MyHC, ANP, BNP, and cardiac α-actin. All samples also included glyceraldehyde phosphate dehydrogenase (GAPDH) as an internal control for RNA loading.

The subject of another assay is ANF locus / NRSE. Particulars: prior data; cited from earlier work.

`CC(/C=C/C(=O)NO)=C\[C@@H](C)C(=O)c1ccc(N(C)C)cc1` [TSA, Trichostatin A]: in assay [1], the “protein acetylation (acetylated lysine residues, Histone H3)” value is reported as “effectively increased acetylated lysine residues”. Further, the “αMyHC (so in the source) expression in presence of IL-1 alone” value in assay [2] (IL-1 alone) is given as “increased αMyHC expression”. Besides, in assay [2] (PE/IL-1 co-treated cells), the “IL-1 suppression of PE induction of αMyHC (so in the source)” value is given as “reversed the IL-1 effect”. In assay [2] (TSA 30 nmol/L, 48 hrs), the “basal SERCA2a mRNA expression” value is reported as “increased the basal expression” and the “basal αMyHC mRNA expression” value is on record as “increased the basal expression”. Besides, the “reversal of αMyHC repression in IL-1 treated (or co-treated) cells” value in assay [2] (TSA pre-treatment, IL-1) is recorded as “less prominent”. Also, the “PE effect on αMyHC expression” value in assay [2] (TSA pre-treatment, PE) was “nearly complete reversal of the PE effect”. For the same molecule, the “repression of SERCA expression by hypertrophic stimuli” value in assay [2] (TSA pre-treatment, PE 20 μmol/L or IL-1 1 ng/mL) is on record as “substantial reversal in the repression of SERCA expression”. Also, the “gene expression of cardiac α-actin, ANP, or BNP” value in assay [2] (any hypertrophic treatment condition) is “did not affect gene expression”. The “basal expression or PE-induction of αMyHC (so in the source)” value in assay [2] (basal or PE) is “had no effects on either the basal expression or PE-induction”. Besides, the “ANF expression at low dose” value in the assay on ANF locus / NRSE is “can induce the ANF expression”.
